Our source for the mutagenic call values is PubChem BioAssay AID1259407 (Chemical Carcinogenesis Research Information System (CCRIS), 2018).

The data set deals with CCRIS mutagenicity, Ames/micronucleus/aberration tests. The experiment in a line: CCRIS mutagenicity studies.
[1] abbreviates: Test System: AMES SALMONELLA TYPHIMURIUM, Strain/Indicator: TA98, Metabolic Activation: NONE, Method: STANDARD PLATE.
Setting [2] is: Test System: AMES SALMONELLA TYPHIMURIUM, Strain/Indicator: TA98, Metabolic Activation: S-9, Method: STANDARD PLATE.
The mark [3] stands for this setting: Test System: AMES SALMONELLA TYPHIMURIUM, Strain/Indicator: TA100, Metabolic Activation: NONE, Method: STANDARD PLATE.
[4] abbreviates: Test System: AMES SALMONELLA TYPHIMURIUM, Strain/Indicator: TA100, Metabolic Activation: S-9, Method: STANDARD PLATE.

Calls of active or inactive are those of the source. How the calls were made is not given here.

For the compound `Nc1ccc(-c2ccc(N)c(Cl)c2)cc1Cl`, the mutagenic call (Test System: AMES SALMONELLA TYPHIMURIUM, Strain/Indicator: TA98(1,8-DNP6), Metabolic Activation: NONE, Method: STANDARD PLATE) is “active; positive”; the mutagenic call (Test System: AMES SALMONELLA TYPHIMURIUM, Strain/Indicator: TA98(1,8-DNP6), Metabolic Activation: S-9, Method: STANDARD PLATE) was “active; positive”; the mutagenic call (Test System: AMES SALMONELLA TYPHIMURIUM, Strain/Indicator: TA98/1,8-DNP6, Metabolic Activation: HAMSTER, LIVER, S-9, Method: PREINCUBATION) was “active; positive”; the mutagenic call (Test System: AMES SALMONELLA TYPHIMURIUM, Strain/Indicator: TA98/1,8-DNP6, Metabolic Activation: NONE, Method: PREINCUBATION) is “active; positive”; the mutagenic call (Test System: AMES SALMONELLA TYPHIMURIUM, Strain/Indicator: TA98, Metabolic Activation: HAMSTER, LIVER, S-9, AROCLOR 1254, Method: PREINCUBATION) is “active; positive”; the mutagenic call (Test System: AMES SALMONELLA TYPHIMURIUM, Strain/Indicator: TA98, Metabolic Activation: HAMSTER, LIVER, S-9, Method: PREINCUBATION) is “active; positive”. Further, the mutagenic call is “active; positive” (Test System: AMES SALMONELLA TYPHIMURIUM, Strain/Indicator: TA98, Metabolic Activation: MOUSE, LIVER, S-9, Method: STANDARD PLATE); “active; positive” (Test System: AMES SALMONELLA TYPHIMURIUM, Strain/Indicator: TA98, Metabolic Activation: NONE, Method: PREINCUBATION); “active; positive” under setting [1]; “active; positive” (Test System: AMES SALMONELLA TYPHIMURIUM, Strain/Indicator: TA98, Metabolic Activation: RAT LIVER S-9, AROCLOR 1254, Method: PREINCUBATION); “active; positive” (Test System: AMES SALMONELLA TYPHIMURIUM, Strain/Indicator: TA98, Metabolic Activation: RAT, LIVER, S-9, AROCLOR 1254, Method: PREINCUBATION); “active; positive” (Test System: AMES SALMONELLA TYPHIMURIUM, Strain/Indicator: TA98, Metabolic Activation: RAT, LIVER, S-9, AROCLOR 1254, Method: STANDARD PLATE). In addition, the mutagenic call under setting [2] was “active; positive”; the mutagenic call (Test System: AMES SALMONELLA TYPHIMURIUM, Strain/Indicator: TA100, Metabolic Activation: HAMSTER, LIVER, S-9, AROCLOR 1254, Method: PREINCUBATION) is “active; positive”; the mutagenic call (Test System: AMES SALMONELLA TYPHIMURIUM, Strain/Indicator: TA100, Metabolic Activation: NONE, Method: PREINCUBATION) is “inactive; negative”; the mutagenic call under setting [3] was “inactive; negative”; the mutagenic call (Test System: AMES SALMONELLA TYPHIMURIUM, Strain/Indicator: TA100, Metabolic Activation: RAT LIVER S-9, AROCLOR 1254, Method: PREINCUBATION) was “active; positive”; the mutagenic call (Test System: AMES SALMONELLA TYPHIMURIUM, Strain/Indicator: TA100, Metabolic Activation: RAT, LIVER, S-9, AROCLOR 1254, Method: PREINCUBATION) is “active; positive”. Besides, the mutagenic call is “active; positive” (Test System: AMES SALMONELLA TYPHIMURIUM, Strain/Indicator: TA100, Metabolic Activation: RAT, LIVER, S-9, AROCLOR 1254, Method: STANDARD PLATE); “active; positive” under setting [4]; “inactive; negative” (Test System: AMES SALMONELLA TYPHIMURIUM, Strain/Indicator: TA1535, Metabolic Activation: HAMSTER, LIVER, S-9, AROCLOR 1254, Method: PREINCUBATION); “inactive; negative” (Test System: AMES SALMONELLA TYPHIMURIUM, Strain/Indicator: TA1535, Metabolic Activation: NONE, Method: PREINCUBATION); “inactive; negative” (Test System: AMES SALMONELLA TYPHIMURIUM, Strain/Indicator: TA1535, Metabolic Activation: RAT, LIVER, S-9, AROCLOR 1254, Method: PREINCUBATION); “active; positive” (Test System: AMES SALMONELLA TYPHIMURIUM, Strain/Indicator: TA1535, Metabolic Activation: RAT, LIVER, S-9, AROCLOR 1254, Method: STANDARD PLATE). Also, the mutagenic call by setting is: (Test System: AMES SALMONELLA TYPHIMURIUM, Strain/Indicator: TA1537, Metabolic Activation: HAMSTER, LIVER, S-9, AROCLOR 1254, Method: PREINCUBATION) “active; positive”; (Test System: AMES SALMONELLA TYPHIMURIUM, Strain/Indicator: TA1537, Metabolic Activation: NONE, Method: PREINCUBATION) “inactive; negative”; (Test System: AMES SALMONELLA TYPHIMURIUM, Strain/Indicator: TA1537, Metabolic Activation: RAT, LIVER, S-9, AROCLOR 1254, Method: PREINCUBATION) “active; positive”; (Test System: AMES SALMONELLA TYPHIMURIUM, Strain/Indicator: TA1537, Metabolic Activation: RAT, LIVER, S-9, PHENOBARBITAL, Method: STANDARD PLATE) “active; positive”; (Test System: AMES SALMONELLA TYPHIMURIUM, Strain/Indicator: TA1538, Metabolic Activation: HAMSTER, LIVER, S-9, Method: STANDARD PLATE) “active; positive”; (Test System: AMES SALMONELLA TYPHIMURIUM, Strain/Indicator: TA1538, Metabolic Activation: NONE, Method: STANDARD PLATE) “active; positive”. Besides, the mutagenic call is “active; positive” (Test System: AMES SALMONELLA TYPHIMURIUM, Strain/Indicator: TA1538, Metabolic Activation: RAT, LIVER, S-9, AROCLOR 1254, Method: STANDARD PLATE); “active; positive” (Test System: AMES SALMONELLA TYPHIMURIUM, Strain/Indicator: TA1538, Metabolic Activation: RAT, LIVER, S-9, PHENOBARBITAL, Method: STANDARD PLATE); “active; positive” (Test System: Ames Salmonella typhimurium, Strain/Indicator: TA102, Metabolic Activation: None, Method: Preincubation); “active; positive” (Test System: Ames Salmonella typhimurium, Strain/Indicator: TA102, Metabolic Activation: Rat, liver, S-9, Aroclor 1254, 4%, Method: Preincubation); “active; positive” (Test System: UDS HUMAN FIBROBLASTS, Strain/Indicator: THY INCORP (NON-S-PHASE), Metabolic Activation: NONE, Method: LIQUID SCINTILLATION COUNTING).

Take `CC(CF)NCC(O)COc1cccc2[nH]c3ccccc3c12` (stereo unspecified): the mutagenic call was “inactive; negative” under setting [1]; “inactive; negative” (Test System: AMES SALMONELLA TYPHIMURIUM, Strain/Indicator: TA98, Metabolic Activation: RAT LIVER S-9, AROCLOR 1254, 5%, Method: STANDARD PLATE); “active; positive” under setting [3]; “active; positive” (Test System: AMES SALMONELLA TYPHIMURIUM, Strain/Indicator: TA100, Metabolic Activation: RAT LIVER S-9, AROCLOR 1254, 5%, Method: STANDARD PLATE); “active; positive” (Test System: AMES SALMONELLA TYPHIMURIUM, Strain/Indicator: TA1535, Metabolic Activation: NONE, Method: STANDARD PLATE); “active; positive” (Test System: AMES SALMONELLA TYPHIMURIUM, Strain/Indicator: TA1535, Metabolic Activation: RAT LIVER S-9, AROCLOR 1254, 5%, Method: STANDARD PLATE).

Regarding `CC(O)CN(CCN(CC(C)O)CC(C)O)CC(C)O` (stereo unspecified), the mutagenic call (Test System: AMES SALMONELLA TYPHIMURIUM, Strain/Indicator: TA97, Metabolic Activation: NONE, Method: STANDARD PLATE) was “inactive; negative”; the mutagenic call (Test System: AMES SALMONELLA TYPHIMURIUM, Strain/Indicator: TA97, Metabolic Activation: S-9, Method: STANDARD PLATE) is “inactive; negative”; the mutagenic call under setting [1] was “inactive; negative”; the mutagenic call under setting [2] is “inactive; negative”; the mutagenic call under setting [3] is “inactive; negative”; the mutagenic call under setting [4] is “inactive; negative”. The mutagenic call (Test System: AMES SALMONELLA TYPHIMURIUM, Strain/Indicator: TA102, Metabolic Activation: NONE, Method: STANDARD PLATE) is “inactive; negative”; the mutagenic call (Test System: AMES SALMONELLA TYPHIMURIUM, Strain/Indicator: TA102, Metabolic Activation: S-9, Method: STANDARD PLATE) is “inactive; negative”; the mutagenic call (Test System: E.COLI, Strain/Indicator: WP2 (PKM101), Metabolic Activation: NONE, Method: STANDARD PLATE) is “inactive; negative”; the mutagenic call (Test System: E.COLI, Strain/Indicator: WP2 (PKM101), Metabolic Activation: S-9, Method: STANDARD PLATE) is “inactive; negative”.
